Reference: PMC9177418, “Global analysis of biosynthetic gene clusters reveals conserved and unique natural products in entomopathogenic nematode-symbiotic bacteria” (Nature Chemistry, 2022)

Tests used:
Type in all cases: biochemical
[1] = molecular target: T1, yeast 20S proteasome β1 subunit (caspase-like) (Saccharomyces cerevisiae, UniProt P38624); assay: X-ray crystal structure ([…] soak; ligand map diffuse at β[…]); fluorogenic inhibition assay with purified yCP
T1 construct: gene PRE3; purified yeast 20S proteasome core particle (yCP); with other subunits of the yeast 20S proteasome core particle (α1–7β1–7β1–7α1–7)
T1 sequence (P38624 20-215): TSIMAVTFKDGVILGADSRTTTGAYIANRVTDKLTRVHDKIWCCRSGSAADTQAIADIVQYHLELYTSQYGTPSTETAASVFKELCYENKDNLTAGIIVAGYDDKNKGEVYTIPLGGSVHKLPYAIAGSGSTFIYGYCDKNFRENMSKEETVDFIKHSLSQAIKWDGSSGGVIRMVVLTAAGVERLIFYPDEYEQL

[2] = molecular target: T2, yeast 20S proteasome β2 subunit (trypsin-like) (Saccharomyces cerevisiae, UniProt P25043); assay: as above
T2 construct: gene PUP1; purified yeast 20S proteasome core particle (yCP); with other subunits of the yeast 20S proteasome core particle (α1–7β1–7β1–7α1–7)
T2 sequence (P25043 30-261): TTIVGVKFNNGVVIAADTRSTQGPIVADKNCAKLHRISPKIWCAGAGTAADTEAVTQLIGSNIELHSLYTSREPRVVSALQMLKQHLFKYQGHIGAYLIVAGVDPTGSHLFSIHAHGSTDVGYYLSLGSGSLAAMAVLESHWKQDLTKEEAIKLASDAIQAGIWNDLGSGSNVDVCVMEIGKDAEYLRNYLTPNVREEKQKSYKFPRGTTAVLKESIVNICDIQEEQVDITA

[3] = molecular target: T3, yeast 20S proteasome β5 subunit (chymotrypsin-like) (Saccharomyces cerevisiae, UniProt P30656); assay: X-ray crystal structure at […] Å; fluorogenic Suc-Leu-Leu-Val-Tyr-AMC inhibition assay with purified yCP
T3 construct: gene PRE2; purified yeast 20S proteasome core particle (yCP); with other subunits of the yeast 20S proteasome core particle (α1–7β1–7β1–7α1–7)
T3 sequence (P30656 76-287): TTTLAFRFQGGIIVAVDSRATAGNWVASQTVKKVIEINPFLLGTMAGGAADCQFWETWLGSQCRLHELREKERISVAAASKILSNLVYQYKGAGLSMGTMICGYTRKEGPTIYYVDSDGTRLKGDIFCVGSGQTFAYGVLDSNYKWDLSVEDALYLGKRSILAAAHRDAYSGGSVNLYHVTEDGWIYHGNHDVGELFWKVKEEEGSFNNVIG

CC(C)[C@@H]1C(=O)O[C@H]1C(=O)O [compound 1, 3-isopropyl-4-oxo-2-oxetanecarboxylic acid]
IC50 [1]: 625 µM | IC50 [2]: 60 µM | IC50 [3]: 6.2 µM
